# Tests used:
# CD4+ T lymphocytes = assay: Activation markers CD25, CD38, HLA-DR, CD69 on CD4+ T lymphocytes (cytometry); format: cell-based, human; conditions: 1 µM
# Method: For analysis of cell surface marker expression, MT-4 cells and bead-selected CD4+ T cells (described above) were incubated with 1 µM of each compound (ING-A, ING-B, ING-C, prostratin, PMA, and bryostatin-1) at 37°C for 48 h. […] Cells (both MT-4 cells and CD4+ T cells) were initially incubated for 2 h with different PKC inhibitors (GÖ6983, GÖ6976 or RO-31-8220). Then, ING-B, prostratin or PMA at 1 µM or TNF-α at 10 ng/mL were added to each condition and incubation was carried out for 24 h at 37°C. […] GFP expression, surface marker expression and activation marker were evaluated on a LSR Fortessa cytometer (BD Biosciences). Data analysis was performed using FlowJo software (Tree Star).
# HIV LTR in J-Lat clones = assay: LTR-driven GFP expression in J-Lat clones; format: cell-based, HIV-1; conditions: J-Lat clones 9.2 and 10.6, 48 h, all concentrations tested
# Method: J-Lat cells are Jurkat cells stably transfected by an HIV genome whose nef sequence was replaced by the GFP gene. Also, a frameshift mutation was introduced to the env gene to prevent virus spread. […] To test the ISDs, a million cells of each clone were treated with different concentrations of each compound (ING-A, ING-B, ING-C, prostratin and PMA) at 37°C. TNF-α (10 ng/mL) was used as a positive control. After 48 h, cells were collected, washed with saline solution (PBS) and GFP expression was evaluated in a FACScalibur cytometer (BD Biosciences). Data were analyzed with Cell Quest Pro software (BD Biosciences).
# [1] = tested on: CD4, CXCR4, CCR5 on MT-4 cells; assay: Surface CD4, CXCR4, CCR5 expression in MT-4 cells (cytometry); format: cell-based; conditions: 1 µM
# Method: (§1) For analysis of cell surface marker expression, MT-4 cells and bead-selected CD4+ T cells (described above) were incubated with 1 µM of each compound (ING-A, ING-B, ING-C, prostratin, PMA, and bryostatin-1) at 37°C for 48 h. After incubation, cells were washed with PBS and incubated for 20 min at room temperature with antibodies against CD3-Brilliant Violet 510 (clone OKT3 – Biolegend), CD4-Qdot 655 (clone 53.5 - Life Technologies), CXCR4-PE (clone 1265 - BD Biosciences), CCR5-PerCP-Cy5.5 (clone 3A9 - BD Biosciences), CD69-Pacific Blue (clone FN50 – BD Biosciences), CD38-FITC (clone AT-1 – Stem Cell Technologies), CD25-APC (clone 2A3 – BD Biosciences), HLA-DR-Qdot 605 (clone TÜ36 – Life Technologies) and a marker for annexin V-FITC (Life Technologies). Cells (both MT-4 cells and CD4+ T cells) were initially incubated for 2 h with different PKC inhibitors (GÖ6983, GÖ6976 or RO-31-8220). Then, ING-B, prostratin or PMA at 1 µM or TNF-α at 10 ng/mL were added to each condition and incubation was carried out for 24 h at 37°C. Similar protocol was used for the analysis of PKC inhibitors in J-Lat clones 9.2 and 10.6. GFP expression, surface marker expression and activation marker were evaluated on a LSR Fortessa cytometer (BD Biosciences). Data analysis was performed using FlowJo software (Tree Star).
# [2] = tested on: CD4, CXCR4, CCR5 on CD4+ T lymphocytes; assay: Surface CD4, CXCR4, CCR5 expression in CD4+ T lymphocytes (cytometry); format: cell-based, human; conditions: CD4+ lymphocytes, 1 µM
# Method: as §1
# PKC [3] = assay: PKC inhibitors on diterpene-induced GFP expression in J-Lat clones 9.2 and 10.6; format: cell-based
# Method: as §1
# PKC [4] = assay: PKC inhibitors on ING-B-driven receptor downregulation in MT-4 cells; format: cell-based; conditions: 0.1 µM inhibitor, then 1 µM ING-B 24 h
# Method: as §1
# PKC [5] = assay: PKC inhibitors on ING-B-driven receptor downregulation in CD4+ T lymphocytes; format: cell-based, human; conditions: 0.1 µM inhibitor in the presence of 1 µM ING-B
# Method: as §1
# [6] = tested on: HIV-1 clone ZM247Fv-1 (subtype C); assay: HIV-1 ZM247Fv-1 (subtype C) infection of human PBMCs, Cell Titer Blue readout; format: cell-based; conditions: Human immunodeficiency virus 1, PBMC
# Method: (§2) Human PMBCs were incubated with 100 U recombinant IL-2 (Sigma-Aldrich) and 5 µg/mL phytohemagglutinin-P (PHA-P) (Difco) for 5 days at 37°C. MT-4 cells (1×10^6) or treated PBMCs (1.2×10^8) were infected with HIV-1 clone NL-4.3 or ZM247Fv-1 (MOI of 0.001) by spinoculation (1200 g at room temperature for 2 h). Uninfected cells were used as negative control and were also subjected to the spinoculation process. After spinoculation, supernatants were discarded and cells were resuspended in 10 mL of R10. Cells from each condition were then added to wells (96-well plate) containing serial dilutions of each ISD. For MT-4 cells, each dilution was done in sextuplicates and, for PBMCs, in triplicates. Cells were also incubated with different concentrations of ZDV as positive control. After 5 days in culture, Cell Titer Blue was added to each well and cells were incubated for additional 24 h. The median effective concentration for each drug is defined as EC50. In parallel with the infectivity assay, the same cell types were treated with different concentrations of drugs to determine their cytotoxicity, following the protocol described above. Drug concentration that results in a 50% decrease in viable cells is defined as the CC50 for each compound. EC50 was calculated according to Spearman-Karber and therapeutic index was defined by the ratio between CC50 and EC50 [55].
# (§3) All statistical analyses were performed using program GraphPism version 6.0. Titrations for TCID50 infectivity were calculated by the Spearman-Karber method. Dose response curves to ISDs with HIV-1 subtype B and C were done using non-linear regression and were fit to the Hill equation.
# [7] = tested on: HIV-1 clone NL4.3 (subtype B); assay: HIV-1 NL4.3 (subtype B) infection of MT-4 cells, Cell Titer Blue readout; format: cell-based; conditions: Human immunodeficiency virus 1, MT4; MT-4 cells, Subtype B (X4); value estimated by extrapolation; read-out: EC50
# Method: as §2, §3
# [8] = tested on: HIV-1 clone NL4.3 (subtype B); assay: HIV-1 NL4.3 (subtype B) infection of human PBMCs, Cell Titer Blue readout; format: cell-based; conditions: Human immunodeficiency virus 1; Human PBMC, Subtype B (X4); read-out: EC50
# Method: as §2, §3
# HIV-1 subtype B and C = assay: Inhibition of HIV-1 subtype B and C replication, summary over MT-4 cells and human PBMCs; format: cell-based; conditions: Human immunodeficiency virus 1, PBMC, MT-4 and human PBMCs
# Method: as §2
# [9] = tested on: HIV-1 clone ZM247Fv-1 (subtype C); assay: HIV-1 ZM247Fv-1 (subtype C) infection of MT-4 cells, Cell Titer Blue readout; format: cell-based; conditions: Human immunodeficiency virus 1, MT4
# Method: as §2, §3
# [10] = tested on: HIV-1 p24 in J-Lat clones; assay: HIV-1 p24 production in J-Lat clones (ELISA); format: cell-based
# Method: (§4) ACH-2 and J1.1 are clonal cell lines derived from CEM [52] and Jurkat cells, respectively, after infection with HIV-1. U1 cells were derived from the human promonocyte cell line U937 and chronically infected with HIV-1 [54]. Each cell line (1×10^6 cells) was incubated in the presence of 1 µM of diterpenes (ING-A, ING-B, ING-C, prostratin and PMA) or 10 ng/mL TNF-α for 48 h at 37°C. After incubation, cells were centrifuged and supernatants were collected for the quantitation of gag p24 antigen by ELISA, following the protocol described by the manufacturer (Perkin Elmer).
# To assess whether the GFP expression levels induced by ISDs in J-Lats led to viral production, all five clones were stimulated with 1 µM of each compound for 48 h and production of HIV-1 p24 was measured in the culture supernatant by ELISA. Levels of p24 were proportional to GFP expression in clones 6.3 and 9.2, whereas levels in clone 8.4 were lower when compared to GFP (Figure 3A).
# ACH-2 cells = assay: gag p24 production in ACH-2 cells (ELISA); format: cell-based, HIV-1; conditions: ACH-2, 1 µM, 48 h
# Method: as §4
# HIV-1 latency = tested on: HIV-1 latency; design: method as in PMID 15284245; conditions: statement in discussion, reference given only in the next sentence; cited from earlier work
compound,measurement,setting,value
"CCCCCCCCCCCCCC(=O)O[C@@H]1[C@@H](C)[C@@]2(O)[C@@H](C=C(CO)C[C@]3(O)C(=O)C(C)=C[C@@H]23)[C@@H]2C(C)(C)[C@]12OC(C)=O [PMA, phorbol 13-myristate acetate]",CD25 surface expression,CD4+ T lymphocytes,upregulated
same,CD69 and CD38 surface expression,CD4+ T lymphocytes,more intensely
same,HLA-DR surface expression,CD4+ T lymphocytes,upregulated by ISDs and PMA
same,"levels of GFP expression, rank order",HIV LTR in J-Lat clones,PMA = ING-B > ING-A = ING-C > prostratin
same,"surface CD4 and CXCR4 expression, of that in the control condition",[1],≥ 50%
same,levels of CD4 expression,[2],severely diminished
Cn1cc(C2=C(c3cn(CCCSC(=N)N)c4ccccc34)C(=O)NC2=O)c2ccccc21 [RO-31-8220],reduction of ING-B-driven GFP expression,PKC [3]; discussion statement,75%
same,GFP expression reduced to,"PKC [3]; pre-incubation with 0.1 µM inhibitor, response to ISDs, prostratin and PMA",75%
same,effect on ING-B-driven receptor downregulation,PKC [4],not able to downregulate the expression of CD4 and CXCR4
same,overexpression of CD4 and CCR5 compared to untreated control,PKC [5],up to 2.5 fold
"Cc1cn([C@H]2C[C@H](N=[N+]=[N-])[C@@H](CO)O2)c(=O)[nH]c1=O [ZDV, Zidovudine, reference compound]",EC50,[6],8 nM
same,EC50,[7],4 nM
same,EC50,[8],7 nM
same,EC50,HIV-1 subtype B and C,4 to 8 nM
same,EC50,[9],5 nM
CCC/C=C/C=C/C(=O)O[C@H]1/C(=C/C(=O)OC)C[C@H]2C[C@H]([C@@H](C)O)OC(=O)C[C@H](O)C[C@@H]3C[C@H](OC(C)=O)C(C)(C)[C@](O)(C[C@@H]4C/C(=C/C(=O)OC)C[C@H](/C=C/C(C)(C)[C@]1(O)O2)O4)O3 [bryostatin-1],downregulation of surface CD4 and CXCR4 (in words),[1],not by prostratin and bryostatin-1
same,downregulation of surface CCR5,[2],less efficient in downregulating surface expression of CCR5
"CC(=O)O[C@@]12C[C@@H](C)[C@@]3(O)[C@@H](C=C(CO)C[C@]4(O)C(=O)C(C)=C[C@@H]34)[C@@H]1C2(C)C [prostratin, 12-deoxyphorbol 13-acetate]",CD25 surface expression,CD4+ T lymphocytes,upregulated
same,HLA-DR surface expression,CD4+ T lymphocytes,not by prostratin
same,"levels of GFP expression, rank order",HIV LTR in J-Lat clones,PMA = ING-B > ING-A = ING-C > prostratin
same,downregulation of surface CD4 and CXCR4 (in words),[1],not by prostratin and bryostatin-1
same,p24 in culture supernatant,"[10]; J-Lat clone 15.4, 1 µM, 48 h",does not appear to work
same,"HIV-LTR activation, overall comparison","[10]; J-Lat clones, GFP and p24 taken together",the less effective compound among all tested
same,downregulation of surface CCR5,[2],less efficient in downregulating surface expression of CCR5
same,p24 production (in words),ACH-2 cells,low levels of p24 production
same,concentration required to reactivate HIV-1 latency,HIV-1 latency,higher than 2 µM
